Results taken from US20090293139A1, “DOUBLE-INDUCIBLE GENE ACTIVATION SYSTEM AND ITS APPLICATIONS” (The Texas A&M University System Agency State of Texas, priority 2008, published 2009).

Legend:
iCasp3 precursors = test: Western blot (anti-HA) of transfected cell lysates, iCasp3; format: cell-based, monkey; conditions: for expression of iCasp3 precursors: CVI cells transfected with Glp65 and pTATA-HA-iCasp3, drug alone, anti-HA Western blot
Protocol: (§1) A double-inducible gene activation system was evaluated in vitro using a cell culture model. Three plasmids were constructed: 1) chimeric transcription factor, Glp65 containing progesterone receptor ligand-binding domain (PR-LBDΔ) (FIG. 1); 2) pTATA-HA-iCasp3 (myristoylated) carrying CBD; and 3) pTATA-HA-iCasp9 carrying CBD (FIGS. 1 and 2). The chimeric transcription factor and one of the two caspase plasmids were transfected into CVI cells (monkey kidney fibroblasts).
(§2) One plasmid expressed a tissue-specific chimeric transcription factor (Glp65) that can be activated by RU486, which functioned as the first induction in our system. In this case, an epidermal-specific keratin 14 (K14) promoter was used to direct gene expression to the keratinocytes of the basal epidermis and hair follicles (KI4-Glp65, FIG. 1; Cao et al., 2002; Kucra et al., 1996). The second plasmid expressed the target transgene. The plasmid contained four copies of the 17-mer GAL4 binding site in the promoter region (FIG. 1). Full length of caspase-3 cDNA with CID binding domain and HA-tag fragment was cloned by polymerase chain reation (PCR) from an expression vector pSH1/M-Fv2-Yama-E (Fan et al., 1999) and was then subcloned into p17×4 TATA-H2 kd vector (Bo et al., 2005) by ClaI and BamH I to generate pTATA-HA-iCasp3 […].
(§3) Cell lysates were assessed by Western blot using an anti-HA antibody. […] With the subsequent application of CID, caspase 3 and caspase 9 were activated as evidenced by the disappearance of the caspase precursors due to the hemagglutinin (HA) tag carrying a caspase cleavage consensus site, DVPD (lanes 4 in FIGS. 3 and 4).

caspase-9 = test: Clonetech ApoAlert Caspase Assay, caspase-9 activity in transfected CVI cells; format: cell-based, monkey; conditions: CVI cells treated for 1.5 hrs
Protocol: as §1

[1] = system: K14-Glp65/iCasp3 and K14-Glp65/iCasp9 bigenic mice; test: Skin phenotype of neonates after RU486 in utero and topical CID; format: in vivo, mouse; conditions: RU486 in utero; topical CID twice per day, after two days; compared to control littermates
Protocol: (§4) To closely monitor the phenotypic changes of the skin of bigenic mice after the activation of caspases through the double-inducible system, we tested system in neonates by delivering RU486 in utero. The RU486 was dissolved in sesame oil and delivered intraperitoneally for 5 days at a dosage of 100 μg/kg per day into pregnant female K14-Glp65/iCasp3 and K14-Glp65/iCasp9 bigenic mice at 14.5 days gestation. To counter the abortion side-effect of RU486, progesterone (Sigma, St. Louis, Mo.) at 0.5 mg/mouse per day was applied along with RU486. Transgenic pups were treated topically with CID on their dorsal anterior-posterior (AP) axes twice per day and monitored closely for phenotypic changes or visible signs of apoptosis. Control littermates were treated with only the diluent only without CID. […] On day four, skin biopsies were taken from the back skin of the pups and fixed in 4% paraformaldehyde.

caspase-3 = test: Clonetech ApoAlert Caspase Assay, caspase-3 activity in transfected CVI cells; format: cell-based, monkey; conditions: CVI cells treated for 1.5 hrs
Protocol: as §1

[2] = system: adult mouse ear skins and newborn mouse back skins; test: Microscopic and histological analysis of skin (H&E); format: in vivo
Protocol: The skin apoptosis was evaluated by TUNEL assay (panels j-l).
Skin sections from K14-Glp65/iCasp9 newborn mice back skin were visualized by H&E stain (panels a-c), and were immunostained by keratin 14 antibody (panels d-f). […] The skin apoptosis was evaluated by TUNEL assay (panels j-l).
Apoptosis was evaluated by TUNEL staining.

iCasp9 = test: Western blot (anti-HA) of transfected cell lysates, iCasp9; format: cell-based, monkey; conditions: for expression of iCasp9 precursors: CVI cells transfected with Glp65 and pTATA-HA-iCasp9, drug alone, anti-HA Western blot
Protocol: as §1, §2, §3

[3] = system: K14-Glp65/iCasp3 and K14-Glp65/iCasp9 bigenic mice; test: Skin phenotype of adult bigenic mice after RU486 pellet and intraperitoneal CID; format: in vivo, mouse
Protocol: A double-inducible gene activation system was tested in vivo in two bigenic mouse lines, K14-Glp65/iCasp3 and K14-Glp65/iCasp9. The bigenic mice were generated by breeding two individual mouse lines.
The breeding of the first and second transgenic mouse lines generated bigenic mice called K14-Glp65/iCasp3 and K14-Glp65/iCasp9, which harbored both RU486 and CID regulators as depicted in FIG. 1. With the application of RU486, the Glp65 fusion protein was exclusively expressed in skin keratinocytes, which subsequently initiated caspase precursor induction.
Bigenic mice between 8 and 15 weeks of age were subjected to RU486 treatment using a 21-day-release pellet that was surgically inserted beneath the skin in the region of the posterior scapula. The addition of RU486 activates the chimeric transcription factor and allows it to bind to the GAL4 DNA binding site of the caspase precursor target gene (either icasp3 or icasp9) and induces target gene expression. After seven days of RU486 treatment, CID was applied intraperitoneally to induce self-activation of caspase precursors. Placebo pellets lacking RU486 and CID-diluent were used for control groups.

[4] = system: adult mouse ear skins and newborn mouse back skins; test: TUNEL staining of skin (apoptosis); format: in vivo
Protocol: (§5) Induction of the two caspases was then further studied by immunohistochemical staining with an anti-HA antibody. […] Apoptosis was evaluated by TUNEL staining.

caspase 3 = test: Western blot of mouse skin tissues, induced caspase 3; format: in vivo; conditions: transgenic mouse skin
Protocol: as §4

caspase 9 = test: Western blot of mouse skin tissues, induced caspase 9; format: in vivo; conditions: transgenic mouse skin
Protocol: as §4

caspase precursors = test: Immunohistochemical staining of skin with anti-HA antibody; format: in vivo; conditions: adult mouse ear skins and newborn mouse back skins
Protocol: as §5

[5] = subsequent application of CID after RU486, CVI cells

Compound | expression of iCasp3 precursors (iCasp3 precursors) | caspase 3 activation (disappearance of the caspase precursors) (iCasp3 precursors; [5]) | increase in caspase-9 activity (caspase-9) | skin phenotype of pups [1] | increase in caspase-3 activity (caspase-3) | skin structure [2] | expression of iCasp9 precursors (iCasp9) | caspase 9 activation (disappearance of the caspase precursors) (iCasp9; [5]) | skin phenotype of ears ([3]; adult bigenic mice, five days following intraperitoneal CID after seven days of RU486 pellet) | TUNEL-positive nuclei (apoptosis) [4] | skin phenotype of ears ([3]; adult bigenic mice that only received RU486 treatment) | expression level of induced caspase 3 (caspase 3) | expression level of induced caspase 9 (caspase 9) | expression of caspase precursors (anti-HA staining) (caspase precursors)
CC[C@H](C(=O)N1CCCC[C@H]1C(=O)O[C@H](CCc1ccc(OC)c(OC)c1)c1cccc(OCC(=O)NCC(CNC(=O)COc2cccc([C@@H](CCc3ccc(OC)c(OC)c3)OC(=O)[C@@H]3CCCCN3C(=O)[C@@H](CC)c3cc(OC)c(OC)c(OC)c3)c2)CN(C)C)c1)c1cc(OC)c(OC)c(OC)c1 [CID] | No caspase precursors were induced | activated | not | exhibited peeling and appeared dehydrated | not | normal skin structures | No caspase precursors were induced | activated | reddening of the surface layers of the skin and thickness | no or basal level of apoptosis | – | – | – | –
CC#C[C@]1(O)CC[C@H]2[C@@H]3CCC4=CC(=O)CCC4=C3[C@@H](c3ccc(N(C)C)cc3)C[C@@]21C [RU486, mifepristone] | induced the expression | – | not | – | not | normal skin structures | induced the expression | – | – | no or basal level of apoptosis | did not observe this phenotype | strong expression | strong expression | Strong expression
